# Test results published in publication PMC10683025, “Discovery of a Hydroxylamine-Based Brain-Penetrant EGFR Inhibitor for Metastatic Non-Small-Cell Lung Cancer” (Journal of Medicinal Chemistry, 2023).
# Values joined by “and” are separate entries in the source; they are usually repeats but may differ in a detail not shown here. Identical values can stand only once. “Also recorded” adds a separate entry of the source.
# Legend:
# AMPK-alpha2 = target: T1, AMPK-alpha2 (Homo sapiens, UniProt P54646); assay: KINOMEScan; type: binding; details: AMPK-alpha2, 1 µM; read-out: Percent Control
# T1 construct: purchased Eurofins DiscoverX (KINOMEscan)
# T1 sequence (P54646 whole entry): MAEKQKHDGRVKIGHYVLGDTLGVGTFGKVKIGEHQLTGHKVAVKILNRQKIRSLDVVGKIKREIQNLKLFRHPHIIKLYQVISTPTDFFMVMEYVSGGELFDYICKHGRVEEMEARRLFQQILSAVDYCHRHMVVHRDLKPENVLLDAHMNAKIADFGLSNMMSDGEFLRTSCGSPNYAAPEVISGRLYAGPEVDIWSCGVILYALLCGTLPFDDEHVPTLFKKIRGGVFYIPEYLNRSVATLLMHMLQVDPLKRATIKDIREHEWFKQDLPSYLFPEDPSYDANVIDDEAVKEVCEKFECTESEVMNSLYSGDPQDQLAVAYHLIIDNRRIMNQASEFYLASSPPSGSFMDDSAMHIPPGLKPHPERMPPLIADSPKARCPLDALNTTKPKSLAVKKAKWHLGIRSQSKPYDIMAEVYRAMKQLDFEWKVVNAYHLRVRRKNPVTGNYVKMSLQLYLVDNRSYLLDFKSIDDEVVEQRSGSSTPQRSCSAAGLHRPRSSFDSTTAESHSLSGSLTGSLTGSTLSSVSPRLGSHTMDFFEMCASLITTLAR
# Source text: (§2) Percent control was mapped onto the kinome tree using TREEspot.
# WEE2 = target: T2, WEE2 (Homo sapiens, UniProt P0C1S8); assay: KINOMEScan; type: binding; details: WEE2, 1 µM; read-out: Percent Control
# T2 construct: purchased Eurofins DiscoverX
# Source text: as §2
# WNK3 = target: T3, WNK3 (Homo sapiens, UniProt Q9BYP7); assay: KINOMEScan; type: binding; details: WNK3, 1 µM; read-out: Percent Control
# T3 construct: purchased Eurofins DiscoverX
# Source text: as §2
# AURKC = target: T4, AURKC (Homo sapiens, UniProt Q9UQB9); assay: KINOMEScan; type: binding; details: read-out: Percent Control
# T4 construct: purchased Eurofins DiscoverX (KINOMEscan)
# ARK5 = target: T5, ARK5 (Homo sapiens, UniProt O60285); assay: KINOMEScan; type: binding; details: ARK5, 1 µM; read-out: Percent Control
# T5 construct: purchased Eurofins DiscoverX (KINOMEscan)
# Source text: as §2
# ACVR1B = target: T6, ACVR1B (Homo sapiens, UniProt P36896); assay: KINOMEScan; type: binding; details: read-out: Percent Control
# T6 construct: purchased Eurofins DiscoverX
# Source text: as §2
# ALK(L1196M) = target: T7, ALK(L1196M) (Homo sapiens, UniProt Q9UM73, L1196M); assay: KINOMEScan; type: binding; details: read-out: Percent Control
# T7 construct: purchased Eurofins DiscoverX (KINOMEscan)
# Source text: as §2
# AKT3 = target: T8, AKT3 (Homo sapiens, UniProt Q9Y243); assay: KINOMEScan; type: binding; details: AKT3, 1 µM; read-out: Percent Control
# T8 construct: purchased Eurofins DiscoverX (KINOMEscan)
# Source text: as §2
# ABL1-phosphorylated = target: T9, ABL1-phosphorylated (Homo sapiens, UniProt P00519); assay: KINOMEScan; type: binding; details: read-out: Percent Control
# T9 construct: purchased Eurofins DiscoverX
# Source text: as §2
# LYN = target: T10, LYN (Homo sapiens, UniProt P07948); assay: KINOMEScan KdELECT Kd determination; type: binding; details: read-out: Kinase Kd
# T10 construct: purchased Eurofins DiscoverX (contract assay)
# Protocol: (§1) In vitro kinase activity (inhibitor binding constants (Kd) and biochemical inhibition (IC50’s)) were assessed by Eurofins DiscoverX (Kd determinations) and Eurofins Cerep (biochemical IC50 determinations).
# BCR-ABLwt (Phos.) = target: T11, BCR-ABLwt (Phos.) (Homo sapiens, UniProt P00519); assay: KINOMEScan KdELECT Kd determination; type: binding; details: read-out: Kinase Kd
# T11 construct: purchased Eurofins DiscoverX (contract assay)
# Protocol: as §1
# ERBB2 = target: T12, ERBB2 (Homo sapiens, UniProt P04626); assay: KINOMEScan KdELECT Kd determination; type: binding; details: read-out: Kinase Kd
# T12 construct: purchased Eurofins DiscoverX (contract assay)
# T12 sequence (P04626 23-1255): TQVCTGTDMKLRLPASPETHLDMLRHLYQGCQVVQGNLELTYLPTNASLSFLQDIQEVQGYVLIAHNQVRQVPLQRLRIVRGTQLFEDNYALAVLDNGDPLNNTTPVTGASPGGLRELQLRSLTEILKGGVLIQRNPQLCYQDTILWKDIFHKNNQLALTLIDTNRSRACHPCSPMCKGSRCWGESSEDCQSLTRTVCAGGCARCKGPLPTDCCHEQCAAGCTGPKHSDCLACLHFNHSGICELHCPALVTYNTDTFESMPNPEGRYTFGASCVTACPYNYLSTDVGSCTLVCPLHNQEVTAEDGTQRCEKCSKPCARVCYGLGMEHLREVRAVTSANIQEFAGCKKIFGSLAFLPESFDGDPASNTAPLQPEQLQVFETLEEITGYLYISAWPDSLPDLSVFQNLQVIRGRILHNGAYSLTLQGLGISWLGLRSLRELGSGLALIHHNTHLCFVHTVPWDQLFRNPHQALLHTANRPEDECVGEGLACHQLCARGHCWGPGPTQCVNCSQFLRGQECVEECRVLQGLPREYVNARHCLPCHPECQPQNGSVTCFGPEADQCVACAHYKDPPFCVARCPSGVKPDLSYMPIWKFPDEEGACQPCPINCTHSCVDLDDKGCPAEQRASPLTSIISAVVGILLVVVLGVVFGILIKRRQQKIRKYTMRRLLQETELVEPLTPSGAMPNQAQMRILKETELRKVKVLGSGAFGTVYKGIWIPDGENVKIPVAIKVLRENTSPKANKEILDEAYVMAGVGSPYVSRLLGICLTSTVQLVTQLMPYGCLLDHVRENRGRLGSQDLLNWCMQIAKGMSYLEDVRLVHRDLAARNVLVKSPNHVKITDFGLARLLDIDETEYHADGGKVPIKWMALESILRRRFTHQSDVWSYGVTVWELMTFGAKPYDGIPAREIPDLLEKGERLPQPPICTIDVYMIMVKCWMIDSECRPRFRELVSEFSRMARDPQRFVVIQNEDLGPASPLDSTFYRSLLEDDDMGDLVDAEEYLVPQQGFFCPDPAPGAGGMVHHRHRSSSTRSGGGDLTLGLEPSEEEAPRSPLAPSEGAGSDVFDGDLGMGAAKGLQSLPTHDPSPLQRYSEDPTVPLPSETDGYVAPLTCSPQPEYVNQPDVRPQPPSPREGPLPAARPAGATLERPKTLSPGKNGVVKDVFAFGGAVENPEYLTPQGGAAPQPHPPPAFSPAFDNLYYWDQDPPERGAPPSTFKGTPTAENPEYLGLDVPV
# Protocol: as §1
# BCR-ABLwt (Nonphos.) = target: T13, BCR-ABLwt (Nonphos.) (Homo sapiens, UniProt P00519); assay: KINOMEScan KdELECT Kd determination; type: binding; details: read-out: Kinase Kd
# T13 construct: purchased Eurofins DiscoverX (contract assay)
# Protocol: as §1
# DRAK1 = target: T14, DRAK1 (Homo sapiens, UniProt Q9UEE5); assay: KINOMEScan KdELECT Kd determination; type: binding; details: read-out: Kinase Kd
# T14 construct: purchased Eurofins DiscoverX (contract assay)
# T14 sequence (Q9UEE5 1-414): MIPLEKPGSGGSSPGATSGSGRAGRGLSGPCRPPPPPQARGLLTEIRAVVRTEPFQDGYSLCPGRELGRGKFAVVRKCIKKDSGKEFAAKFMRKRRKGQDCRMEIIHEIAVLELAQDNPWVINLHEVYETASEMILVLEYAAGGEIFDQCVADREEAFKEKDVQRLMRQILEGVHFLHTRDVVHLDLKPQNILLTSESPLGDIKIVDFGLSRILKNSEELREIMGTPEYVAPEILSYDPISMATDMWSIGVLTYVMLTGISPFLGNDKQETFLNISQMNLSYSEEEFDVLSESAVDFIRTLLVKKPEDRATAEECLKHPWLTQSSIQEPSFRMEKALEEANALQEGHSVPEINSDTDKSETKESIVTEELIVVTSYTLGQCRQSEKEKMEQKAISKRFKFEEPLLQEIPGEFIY
# Protocol: as §1
# CYP1A2 = target: T15, CYP1A2 (Homo sapiens, UniProt P05177); assay: CYP450 inhibition in human liver microsomes; type: in vitro ADME
# T15 construct: tissue BD Gentest; host or cells: pooled human liver microsomes
# T15 sequence (P05177 whole entry): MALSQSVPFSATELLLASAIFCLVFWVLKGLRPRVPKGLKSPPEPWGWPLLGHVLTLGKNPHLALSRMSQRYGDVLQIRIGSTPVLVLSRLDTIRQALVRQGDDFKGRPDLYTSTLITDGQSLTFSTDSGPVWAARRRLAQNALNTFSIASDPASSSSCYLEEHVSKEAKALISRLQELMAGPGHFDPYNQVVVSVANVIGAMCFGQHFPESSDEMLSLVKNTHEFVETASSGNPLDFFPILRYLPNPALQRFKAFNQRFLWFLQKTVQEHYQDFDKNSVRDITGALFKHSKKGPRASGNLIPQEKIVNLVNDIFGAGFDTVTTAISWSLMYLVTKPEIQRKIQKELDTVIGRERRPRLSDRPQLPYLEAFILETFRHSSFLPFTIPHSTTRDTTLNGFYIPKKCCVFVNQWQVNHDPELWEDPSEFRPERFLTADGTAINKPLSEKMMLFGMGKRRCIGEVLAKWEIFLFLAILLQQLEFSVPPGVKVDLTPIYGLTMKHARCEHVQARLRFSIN
# Protocol: (§3) The activities tested were CYP1A2-mediated phenacetin O-demethylation, CYP2C19-mediated (S)-mephenyotin 4′-hydroxylation, CYP2C9-mediated diclofenac 4′-hydroxylation, CYP2D6-mediated dextromethorphan O-demethylation, and CYP3A4-mediated midazolam 1′-hydroxylation. […] The reactions were initiated by adding NADPH (1 mM final concentration) after a 5 min preincubation, and the assay was run in duplicate (n = 2). Samples were analyzed by ultra-performance liquid chromatography tandem mass spectrometry (UPLC-MS/MS).
# AURKB = target: T16, AURKB (Homo sapiens, UniProt Q96GD4); assay: KINOMEScan; type: binding; details: read-out: Percent Control
# T16 construct: purchased Eurofins DiscoverX (KINOMEscan)
# T16 sequence (Q96GD4 whole entry): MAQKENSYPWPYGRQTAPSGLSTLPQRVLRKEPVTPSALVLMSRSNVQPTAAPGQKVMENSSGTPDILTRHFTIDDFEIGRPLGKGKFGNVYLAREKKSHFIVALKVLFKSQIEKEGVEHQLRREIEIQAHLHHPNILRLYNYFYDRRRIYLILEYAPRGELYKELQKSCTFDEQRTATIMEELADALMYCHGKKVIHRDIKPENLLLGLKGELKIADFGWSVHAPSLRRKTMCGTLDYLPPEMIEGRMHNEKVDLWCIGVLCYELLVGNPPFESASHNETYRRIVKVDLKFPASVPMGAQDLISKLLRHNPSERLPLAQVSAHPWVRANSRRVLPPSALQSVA
# [1] = target: T17, ABL1(Y253F)-phosphorylated (Homo sapiens, UniProt P00519, Y253F); assay: KINOMEScan; type: binding; details: read-out: Percent Control
# T17 construct: purchased Eurofins DiscoverX
# Source text: as §2
# BRSK1 = target: T18, BRSK1 (Homo sapiens, UniProt Q8TDC3); assay: KINOMEScan; type: binding; details: BRSK1, 1 µM; read-out: Percent Control
# T18 construct: purchased Eurofins DiscoverX (KINOMEscan)
# Source text: as §2
# YANK1 = target: T19, YANK1 (Homo sapiens, UniProt Q8WU08); assay: KINOMEScan; type: binding; details: YANK1, 1 µM; read-out: Percent Control
# T19 construct: purchased Eurofins DiscoverX (KINOMEScan service)
# T19 sequence (Q8WU08 whole entry): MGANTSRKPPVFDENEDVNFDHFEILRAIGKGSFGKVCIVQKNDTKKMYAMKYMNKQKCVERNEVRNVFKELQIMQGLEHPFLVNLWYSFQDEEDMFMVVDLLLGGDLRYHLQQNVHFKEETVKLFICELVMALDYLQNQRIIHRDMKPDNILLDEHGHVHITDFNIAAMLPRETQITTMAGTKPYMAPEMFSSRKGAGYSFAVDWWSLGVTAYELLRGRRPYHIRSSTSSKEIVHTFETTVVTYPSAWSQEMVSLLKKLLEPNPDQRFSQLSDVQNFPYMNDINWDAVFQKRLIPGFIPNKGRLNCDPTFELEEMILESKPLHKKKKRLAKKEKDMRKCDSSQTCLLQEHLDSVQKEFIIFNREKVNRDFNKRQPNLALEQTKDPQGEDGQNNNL
# Source text: as §2
# CHO-K1 cells = assay: In vitro micronucleus test; type: cell-based, Chinese hamster; details: ± rat liver S9; valid to 31 μM + S9 and 8 μM − S9
# Protocol: Compound 9 was assessed for genotoxicity by Eurofins Panlabs using the in vitro micronucleus test in Chinese hamster ovary (CHO-K1) cells as previously described.[79] Compound 9 was incubated in a 96-well plate format at varying concentrations (8, 16, 31, 62, 125, 250, 500, and 1000 μM) for 4 h at 37 °C with metabolic activation by rat liver S9 and 24 h at 37 °C without metabolic activation by rat liver S9. High content analysis and fluorescence imaging were used to detect micronuclei and compared against positive controls (cyclophosphamide (ran at 7.2 μM) and mitomycin C (ran at 0.3 μM)). Significances of the positive counts between the treatment and control were determined by one-tailed t test with two-sample equal variance.
# YSK4 = target: T20, YSK4 (Homo sapiens, UniProt Q56UN5); assay: KINOMEScan; type: binding; details: YSK4, 1 µM; read-out: Percent Control
# T20 construct: purchased Eurofins DiscoverX (KINOMEScan service)
# T20 sequence (Q56UN5 whole entry): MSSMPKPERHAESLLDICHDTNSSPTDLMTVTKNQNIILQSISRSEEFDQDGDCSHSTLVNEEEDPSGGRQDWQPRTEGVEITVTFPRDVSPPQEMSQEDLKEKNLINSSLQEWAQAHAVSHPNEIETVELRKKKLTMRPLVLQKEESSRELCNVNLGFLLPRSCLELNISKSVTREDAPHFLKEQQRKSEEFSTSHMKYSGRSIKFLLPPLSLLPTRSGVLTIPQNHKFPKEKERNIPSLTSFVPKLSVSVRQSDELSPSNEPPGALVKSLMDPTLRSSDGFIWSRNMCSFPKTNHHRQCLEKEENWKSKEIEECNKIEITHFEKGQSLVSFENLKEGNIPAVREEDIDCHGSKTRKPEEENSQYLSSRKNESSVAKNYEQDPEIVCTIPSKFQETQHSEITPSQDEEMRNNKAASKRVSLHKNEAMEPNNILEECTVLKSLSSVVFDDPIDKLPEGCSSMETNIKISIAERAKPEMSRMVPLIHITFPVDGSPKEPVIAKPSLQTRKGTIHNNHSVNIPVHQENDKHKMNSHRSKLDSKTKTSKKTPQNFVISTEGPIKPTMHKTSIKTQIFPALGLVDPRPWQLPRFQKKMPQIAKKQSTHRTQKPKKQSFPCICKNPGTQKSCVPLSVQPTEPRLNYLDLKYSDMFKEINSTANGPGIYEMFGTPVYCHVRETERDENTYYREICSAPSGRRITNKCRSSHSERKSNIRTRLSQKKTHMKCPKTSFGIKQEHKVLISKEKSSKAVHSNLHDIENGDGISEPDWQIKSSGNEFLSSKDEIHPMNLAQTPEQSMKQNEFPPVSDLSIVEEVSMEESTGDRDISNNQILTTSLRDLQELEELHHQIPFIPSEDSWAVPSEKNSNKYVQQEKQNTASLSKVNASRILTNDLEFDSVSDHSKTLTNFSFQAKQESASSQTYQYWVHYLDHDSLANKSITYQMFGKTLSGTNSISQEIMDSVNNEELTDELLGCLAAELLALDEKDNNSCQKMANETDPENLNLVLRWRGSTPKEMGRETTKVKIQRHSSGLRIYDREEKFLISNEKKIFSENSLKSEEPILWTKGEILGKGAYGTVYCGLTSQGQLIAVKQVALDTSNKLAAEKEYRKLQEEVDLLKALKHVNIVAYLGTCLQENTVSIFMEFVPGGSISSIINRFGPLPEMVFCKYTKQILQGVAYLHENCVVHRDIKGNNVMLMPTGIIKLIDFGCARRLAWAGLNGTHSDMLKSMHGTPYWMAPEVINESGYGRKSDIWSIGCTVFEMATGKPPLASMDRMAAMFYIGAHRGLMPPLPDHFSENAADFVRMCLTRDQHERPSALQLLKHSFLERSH
# AMPK-alpha1 = target: T21, AMPK-alpha1 (Homo sapiens, UniProt Q13131); assay: KINOMEScan; type: binding; details: AMPK-alpha1, 1 µM; read-out: Percent Control
# T21 construct: purchased Eurofins DiscoverX (KINOMEscan)
# Source text: as §2
# [2] = target: T22, ABL1(Q252H)-phosphorylated (Homo sapiens, UniProt P00519, Q252H); assay: KINOMEScan; type: binding; details: read-out: Percent Control
# T22 construct: purchased Eurofins DiscoverX
# Source text: as §2
# [3] = In vitro metabolite identification; type: in vitro ADME; details: human hepatocytes, 10 μM
# BMPR1A = target: T23, BMPR1A (Homo sapiens, UniProt P36894); assay: KINOMEScan; type: binding; details: read-out: Percent Control
# T23 construct: purchased Eurofins DiscoverX (KINOMEscan)
# Source text: as §2
# [4] = target: T24, ABL1(H396P)-nonphosphorylated (Homo sapiens, UniProt P00519, H396P); assay: KINOMEScan; type: binding; details: read-out: Percent Control
# T24 construct: purchased Eurofins DiscoverX
# Source text: as §2
# [5] = target: T25, ABL1(T315I)-phosphorylated (Homo sapiens, UniProt P00519, T315I); assay: KINOMEScan; type: binding; details: read-out: Percent Control
# T25 construct: purchased Eurofins DiscoverX
# Source text: as §2
# CYP2D6 = CYP2D6 (Homo sapiens, UniProt P10635); assay: CYP450 inhibition in human liver microsomes; type: in vitro ADME; set-up: tissue BD Gentest 452117; host or cells: pooled human liver microsomes, mixed gender
# Chain of CYP2D6 (P10635 whole entry): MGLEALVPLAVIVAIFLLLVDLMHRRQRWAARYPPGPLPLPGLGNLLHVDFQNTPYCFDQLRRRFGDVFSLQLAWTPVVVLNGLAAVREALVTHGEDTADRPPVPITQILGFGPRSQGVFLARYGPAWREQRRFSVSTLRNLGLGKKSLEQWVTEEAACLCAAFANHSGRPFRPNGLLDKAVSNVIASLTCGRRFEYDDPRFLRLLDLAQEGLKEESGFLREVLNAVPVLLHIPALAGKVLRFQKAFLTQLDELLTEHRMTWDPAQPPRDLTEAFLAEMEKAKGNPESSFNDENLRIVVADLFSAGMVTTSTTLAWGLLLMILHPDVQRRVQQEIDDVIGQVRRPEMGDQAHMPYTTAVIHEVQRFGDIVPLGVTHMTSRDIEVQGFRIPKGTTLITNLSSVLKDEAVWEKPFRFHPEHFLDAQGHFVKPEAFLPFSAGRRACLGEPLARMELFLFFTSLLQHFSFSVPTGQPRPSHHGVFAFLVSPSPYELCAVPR
# Protocol: as §3
structure (smiles),measurement,setting,value
"COc1cc2ncnc(Nc3cccc(Cl)c3F)c2cc1OCCON1CCN(C)CC1 [Compound 9, N-(3-Chloro-2-fluorophenyl)-7-methoxy-6-(2-((4-methylpiperazin-1-yl)oxy)ethoxy)quinazolin-4-amine]",remaining binding at 1 µM,AMPK-alpha2,97%
same,remaining binding at 1 µM,WEE2,100%
same,remaining binding at 1 µM,WNK3,94%
same,remaining binding at 1 µM,AURKC,82%
same,remaining binding at 1 µM,ARK5,100%
same,remaining binding at 1 µM,ACVR1B,86%
same,remaining binding at 1 µM,ALK(L1196M),100%
same,remaining binding at 1 µM,AKT3,68%
same,remaining binding at 1 µM,ABL1-phosphorylated,7.7%
same,Kd,LYN,0.11 µM
same,Kd,BCR-ABLwt (Phos.),0.18 µM
same,Kd,ERBB2,0.021 µM
same,Kd,BCR-ABLwt (Nonphos.),0.26 µM
same,Kd,DRAK1,0.087 µM
same,IC50,CYP1A2,> 30 µM
same,remaining binding at 1 µM,AURKB,84%
same,remaining binding at 1 µM,[1],6.6%
same,remaining binding at 1 µM,BRSK1,100%
same,remaining binding at 1 µM,YANK1,94%
same,In vitro micronucleus,CHO-K1 cells,neither mutagenic nor genotoxic potential; also recorded: Negative
same,remaining binding at 1 µM,YSK4,46%
same,remaining binding at 1 µM,AMPK-alpha1,100%
same,remaining binding at 1 µM,[2],8.8%
same,share of parent/metabolite after incubation of 9,[3],14.20%
same,remaining binding at 1 µM,BMPR1A,90%
same,remaining binding at 1 µM,[4],1%
same,remaining binding at 1 µM,[5],30%
same,IC50,CYP2D6,1.1 µM and 1.11 µM
